Measurements published in patent US4521598A, “3-Azidocephalosporins” (priority 1983, dated 1985).
Converted amounts (≈) assume the structure as drawn. Structures can show the parent of a compound that is named as a salt. Where two headings read alike, the source gives them in different places.

Experiments:
Micrococcus luteus = assay: Disc plate assay, zone of inhibition; type: cell-based; conditions: for zone of inhibition at 3000 µg/mL: read-out: Zone of Inhibition (mm. diam.)
Escherichia coli [1] = assay: Disc plate assay, zone of inhibition; type: cell-based; conditions: for zone of inhibition at 3000 µg/mL: read-out: Zone of Inhibition (mm. diam.)
[2] = system: Bacillus stearothyermophilus; assay: Disc plate assay, zone of inhibition; type: cell-based; conditions: for zone of inhibition at 3000 µg/mL: read-out: Zone of Inhibition (mm. diam.)
Bacillus subtilis = assay: Disc plate assay, zone of inhibition; type: cell-based; conditions: for zone of inhibition at 3000 µg/mL: read-out: Zone of Inhibition (mm. diam.)
Staphylococcus aureus [3] = assay: Disc plate assay, zone of inhibition; type: cell-based; conditions: for zone of inhibition at 3000 µg/mL: read-out: Zone of Inhibition (mm. diam.)
[4] = system: Trichophyton mentagrophytes; assay: Disc plate assay, zone of inhibition; type: cell-based
Description: (§1) The 7-acylamino-3-azido-3-cephem-4-carboxylic acids and the salts thereof inhibit the growth of bacteria pathogenic to man and animals. […] For example, 7β-(2-thienylacetamido)-3-azido-3-cephem-4-carboxylic acid inhibited the growth of various organisms as shown in the following Table 1.
(§2) ^1 concentration 1 mg./ml.
(§3) The 3-amino-2-substituted-3-cephem compounds (formula 5) as the free acids or salts thereof and the bicyclo nonenes (formula 6) as the free acids or salts thereof are antibacterial agents which inhibit the growth of bacteria pathogenic to man and animals. In Table 3 below the in vitro antibacterial properties of the three isomeric products represented by formulae 5 and 6 obtained in the disc-plate method is tabulated.

Proteus vulgaris = assay: Disc plate assay, zone of inhibition; type: cell-based
Pseudomonas solanacearum = assay: microbe, parasite or virus in culture; type: cell-based; conditions: Ralstonia solanacearum; for zone of inhibition at 3000 µg/mL: read-out: Zone of Inhibition (mm. diam.)
Candida albicans = assay: Disc plate assay, zone of inhibition; type: cell-based
Description: as §1, §2, §3

[5] = system: Streptococcus epidermidis; assay: Agar dilution method, MIC; type: cell-based
Staphylococcus aureus [6] = assay: Agar dilution method, MIC; type: cell-based
Escherichia coli [7] = assay: Agar dilution method, MIC; type: cell-based
Enterobacter cloacae = assay: Agar dilution method, MIC; type: cell-based
Streptococcus pyogenes = assay: Agar dilution method, MIC; type: cell-based; conditions: strain C203
Klebsiella pneumoniae = assay: Agar dilution method, MIC; type: cell-based
[8] = system: Saccharomyces postorianus; assay: Disc plate assay, zone of inhibition; type: cell-based; conditions: concentration 1 mg./ml.
Description: as §1, §2

Salmonella gallinarum = assay: Disc plate assay, zone of inhibition; type: cell-based; conditions: Salmonella enterica, concentration 1 mg./ml.
Description: as §1, §2

Serratia marcescens = assay: Disc plate assay, zone of inhibition; type: cell-based; conditions: concentration 1 mg./ml.
Description: as §1, §2

Pseudomonas aeruginosa = assay: Disc plate assay, zone of inhibition; type: cell-based; conditions: concentration 1 mg./ml.
Description: as §1, §2

Streptococcus sp. D = assay: Agar dilution method, MIC; type: cell-based
Streptococcus pneumoniae = assay: Agar dilution method, MIC; type: cell-based; conditions: strain Park
Haemophilus influenzae = assay: Agar dilution method, MIC; type: cell-based
Proteus = assay: Agar dilution method, MIC; type: cell-based; conditions: strains of Proteus
Pseudomonas = assay: Agar dilution method, MIC; type: cell-based; conditions: strains of Pseudomonas
Enterobacter aerogenes = assay: Agar dilution method, MIC; type: cell-based
Serratia = assay: Agar dilution method, MIC; type: cell-based; conditions: strains of Serratia
Salmonella typhi = assay: Agar dilution method, MIC

COC1=N[C@@H](C(=O)[O-])N2C(=O)[C@H](NC(=O)Cc3cccs3)[C@@H]2SC1.[Na+] [Compound A, [2R-(2α,7α,8β)],-4-Methoxy-9-oxo-8-[(2-thienylacetyl)-amino]-6-thia-1,3-diazabicyclo[5.2.0]non-3-ene-2-carboxylic acid sodium salt] was tested, and the “Zone of Inhibition (mm. diam.)” value (Micrococcus luteus; Concentration: 3 mg./ml.) was 10 mm, the “Zone of Inhibition (mm. diam.)” value (Escherichia coli [1]; Concentration: 3 mg./ml.) was 12 mm and the “Zone of Inhibition (mm. diam.)” value ([2]; Concentration: 3 mg./ml.) was 11 mm. For the same compound, the “Zone of Inhibition (mm. diam.)” value (Bacillus subtilis; Concentration: 3 mg./ml.) was 15 mm, the “Zone of Inhibition (mm. diam.)” value (Staphylococcus aureus [3]; Concentration: 3 mg./ml.) was 18 mm and the “Zone of Inhibition (mm. diam.)” value ([4]; Concentration: 3 mg./ml.) was “tr”.

With COC1S[C@@H]2[C@H](NC(=O)Cc3cccs3)C(=O)N2C(C(=O)[O-])=C1N.[Na+] (stereo partly drawn) [Compound C, Sodium 7β-[(2-thienylacetyl)amino]-2-methoxy-3-amino-3-cephem-4-carboxylate] the zone of inhibition at 3000 µg/mL (Micrococcus luteus; Micrococcus luteus) was 24 mm, the zone of inhibition at 3000 µg/mL (Escherichia coli [1]; Escherichia coli) was 30 mm and the “Zone of Inhibition (mm. diam.)” value (Proteus vulgaris; Concentration: 3 mg./ml.) was “tr”. It also gave a zone of inhibition at 3000 µg/mL ([2]; Bacillus) of 36 mm, a zone of inhibition at 3000 µg/mL (Pseudomonas solanacearum) of 11 mm and a zone of inhibition at 3000 µg/mL (Bacillus subtilis; Bacillus subtilis) of 30 mm. It also gave a zone of inhibition at 3000 µg/mL (Staphylococcus aureus [3]; Staphylococcus aureus) of 29 mm.

In the case of COC1=NCS[C@@H]2[C@H](NC(=O)Cc3cccs3)C(=O)N2[C@H]1C(=O)O [Compound B, [2R-(2α,7α,8β)],-3-Methoxy-9-oxo-8-[(2-thienylacetyl)-amino]-6-thia-1,4-diaza[5.2.0]non-3-ene-2-carboxylic acid sodium salt], the zone of inhibition at 3000 µg/mL (Micrococcus luteus; Micrococcus luteus, Concentration: 3 mg./ml.) is reported as 25 mm, the zone of inhibition at 3000 µg/mL (Escherichia coli [1]; Escherichia coli, Concentration: 3 mg./ml.) is reported as 25 mm and the zone of inhibition at 3000 µg/mL ([2]; Bacillus, Concentration: 3 mg./ml.) is reported as 34 mm. It also gave a zone of inhibition at 3000 µg/mL (Pseudomonas solanacearum) of 12 mm, a zone of inhibition at 3000 µg/mL (Bacillus subtilis; Bacillus subtilis, Concentration: 3 mg./ml.) of 27 mm and a zone of inhibition at 3000 µg/mL (Staphylococcus aureus [3]; Staphylococcus aureus, Concentration: 3 mg./ml.) of 29 mm. The zone of inhibition at 3000 µg/mL (Candida albicans; Candida albicans, Concentration: 3 mg./ml., read-out: Zone of Inhibition (mm. diam.)) was 13 mm.

For [N-]=[N+]=NC1=C(C(=O)O)N2C(=O)[C@@H](NC(=O)Cc3cccs3)[C@H]2SC1 [7β-(2-Thienylacetamido)-3-azido-3-cephem-4-carboxylic acid], the MIC ([5]; strain 222) was 4 µg/mL (≈ 10.9 µM), the MIC ([5]; strain EP11) was 16 µg/mL (≈ 43.8 µM) and the zone of inhibition at 1000 µg/mL (Micrococcus luteus; Micrococcus luteus, concentration 1 mg./ml.) was 23 mm. For the same compound, the MIC (Staphylococcus aureus [6]; strain S13E) was 64 µg/mL (≈ 175 µM), the MIC (Staphylococcus aureus [6]; strain V41, read-out: MIC) was 64 µg/mL (≈ 175 µM) and the MIC (Staphylococcus aureus [6]; strain X1.1, read-out: MIC) was 8 µg/mL (≈ 21.9 µM). The MIC (Staphylococcus aureus [6]; strain X400, read-out: MIC) was 128 µg/mL (≈ 350 µM), the MIC (Escherichia coli [7]) was 128 µg/mL (≈ 350 µM) and the MIC (Escherichia coli [7]; strain EC14, read-out: MIC) was 16 µg/mL (≈ 43.8 µM). It also gave an MIC (Escherichia coli [7]; strain N10, read-out: MIC) of 64 µg/mL (≈ 175 µM), an MIC (Enterobacter cloacae; Enterobacter cloacae, strain EB5, read-out: MIC) of 128 µg/mL (≈ 350 µM) and an MIC (Enterobacter cloacae; strain 265A) of 128 µg/mL (≈ 350 µM). For the same compound, the MIC (Streptococcus pyogenes) was 0.5 µg/mL (≈ 1.37 µM), the MIC (Klebsiella pneumoniae) was 128 µg/mL (≈ 350 µM) and the MIC (Klebsiella pneumoniae; strain X26, read-out: MIC) was 4 µg/mL (≈ 10.9 µM). The MIC (Klebsiella pneumoniae; strain X68, read-out: MIC) was 16 µg/mL (≈ 43.8 µM), the “detectable zone of inhibition” value [8] was “failed to produce a detectable zone of inhibition” and the zone of inhibition at 1000 µg/mL (Salmonella gallinarum) was 19 mm. The “detectable zone of inhibition” value (Serratia marcescens) was “failed to produce a detectable zone of inhibition”, the “detectable zone of inhibition” value (Pseudomonas aeruginosa) was “failed to produce a detectable zone of inhibition” and the MIC (Streptococcus sp. D; Streptococcus, strain X66, read-out: MIC) was 128 µg/mL (≈ 350 µM). The MIC (Streptococcus sp. D; strain 2041) was 128 µg/mL (≈ 350 µM), the zone of inhibition at 1000 µg/mL (Escherichia coli [1]; Escherichia coli, concentration 1 mg./ml.) was 21 mm and the zone of inhibition at 1000 µg/mL (Proteus vulgaris; Proteus vulgaris, concentration 1 mg./ml.) was 25 mm. It also gave an MIC (Streptococcus pneumoniae) of 0.25 µg/mL (≈ 0.684 µM), an MIC (Haemophilus influenzae; strain 76) of 4 µg/mL (≈ 10.9 µM) and an MIC (Haemophilus influenzae; strain C.L.) of 16 µg/mL (≈ 43.8 µM). For the same compound, the zone of inhibition at 1000 µg/mL ([2]; Bacillus, concentration 1 mg./ml.) was 20 mm, the MIC (Proteus) was ≥ 128 µg/mL and the zone of inhibition at 1000 µg/mL (Pseudomonas solanacearum) was 29 mm. For the same compound, the MIC (Pseudomonas) was ≥ 128 µg/mL, the MIC (Enterobacter aerogenes; Klebsiella aerogenes, strain C32, read-out: MIC) was 128 µg/mL (≈ 350 µM) and the MIC (Enterobacter aerogenes; strain EB17) was 128 µg/mL (≈ 350 µM). The MIC (Serratia) was ≥ 128 µg/mL, the zone of inhibition at 1000 µg/mL (Bacillus subtilis; Bacillus subtilis, concentration 1 mg./ml.) was 30 mm and the MIC (Salmonella typhi; Salmonella enterica, TYPHI) was 16 µg/mL (≈ 43.8 µM). The MIC (Salmonella typhi; strain 1335) was 16 µg/mL (≈ 43.8 µM), the zone of inhibition at 1000 µg/mL (Staphylococcus aureus [3]; Staphylococcus aureus, concentration 1 mg./ml.) was 30 mm and the “detectable zone of inhibition” value (Candida albicans; concentration 1 mg./ml.) was “failed to produce a detectable zone of inhibition”. For the same compound, the “detectable zone of inhibition” value ([4]; concentration 1 mg./ml.) was “failed to produce a detectable zone of inhibition”.
